Measured values taken from EP4692094A1 (Beijing Konruns Pharmaceutical Co., Ltd., priority 2023, dated 2024).

Columns and labels:
CYP2D6 = molecular target: T1, CYP2D6 (Homo sapiens, UniProt P10635); assay: Inhibitory effect on P450 enzymes in vitro (human liver microsomes), CYP2D6; assay type: in vitro ADME; settings: probe dextromethorphan, final concentration 10 µM, substrate dextromethorphan, read-out: % inhibition rate CYP2D6 (dextromethorphan)
T1 construct: from tissue; host or cells: human liver microsomes
Method: (§1) 1.1 Preparation of compounds: The compounds prepared in the examples were each dissolved in dimethylsulfoxide to give solutions at a concentration of 2 mmol/L.
(§2) 1.2 Test methods: • 1) Incubation system: human liver microsomes, a MgCl2 solution, a phosphate buffer solution, and a substrate solution were each added a 96-well deep-well plate and mixed homogenously. In the final incubation system, the concentration of the human liver microsomes was 0.2 mg/mL, and the final concentrations of the MgCl2 solution and the phosphate buffer solution were 5 mM and 100 mM, respectively. • 2) 1 µL of the substrate solution was added to the incubation system, and the final concentrations of CYP1A2 phenacetin, 2C8 paclitaxel […], 2C19 mephenytoin, 2D6 midazolam, and 3A midazolam substrates were 40 µM (phenacetin), 5 µM (paclitaxel), 50 µM (mephenytoin), 10 µM (mephenytoin), 5 µM (midazolam), and 50 µM […], respectively. • 3) 1 µL of the example compound or vehicle (DMSO) was added to the incubation system, and the incubation system was pre-warmed for 5 min in a 37 °C water bath before starting the reaction with 20 µL of 10 mM NADPH solution.
(§3) 1.3 Sample treatment: Within the designated time (20 min for phenacetin, 10 min for paclitaxel, 20 min for mephenytoin, 20 min for dextromethorphan, 5 min for midazolam, and 10 min for testosterone), 400 µL of methanol containing the internal standard was added to terminate the reaction, and the mixture was vortexed and mixed homogeneously. Then, the deep-well plate was centrifuged at 3220 g and 4 °C for 40 min. 100 µL of the supernatant was transferred into a new plate, and 150 µL of purified water was added. The mixture was mixed homogenously for LC-MS/MS analysis. Table 11. Inhibitory effects of some compounds in the examples on CYP enzymes

CYP2C19 = molecular target: T2, CYP2C19 (Homo sapiens, UniProt P33261); assay: Inhibitory effect on P450 enzymes in vitro (human liver microsomes), CYP2C19; assay type: in vitro ADME; settings: probe mephenytoin, final concentration 10 µM, substrate mephenytoin, read-out: % inhibition rate CYP2C19 (mephenytoin)
T2 construct: from tissue; host or cells: human liver microsomes
Method: as §1, §2, §3

KAT7 = molecular target: T3, KAT7 (Homo sapiens, UniProt O95251); assay: Enzymatic activity assay for KAT7 acetyltransferase (TR-FRET, histone substrate H4); assay type: biochemical; settings: KAT7 15 nM, H4 300 nM, AcCOA 2 µM
T3 construct: purchased ICE S02210F-H21HF
Method: The acetylation effects of KAT6B on histone substrate H3, as well as KAT5, KAT7, and KAT8 on histone substrate H4, were determined using the TR-FRET (time-resolved fluorescence resonance energy transfer) method. The determination was performed according to experimental procedures similar to those in "Pharmacological Experiment I": 1.2 Preparation of compounds: The compounds prepared in the examples were each dissolved in dimethylsulfoxide to give solutions at a concentration of 10 mmol/L. • 1) The compounds in the examples were each diluted from 10 mmol/L stock solution to 0.2 mmol/L, i.e., 1 µL of the compound was added to 49 µL of DMSO, and 3-fold dilution was performed to give 10 concentrations. • 2) 50 nL of the test compounds were transferred to 384 reaction plates using Echo, two replicates for each compound, and the plates were centrifuged at a rotation speed of 1000 rpm for 1 min, the final concentration of dimethylsulfoxide (DMSO) being 0.5%.
For KAT7: • 3) 2.5 µL of the KAT7 enzyme solution at a final concentration of 15 nM was added to the 384 reaction plates in step 2), and the plates were centrifuged at 1000 rpm for 1 min and incubated at 25 °C for 10 min. • 4) 2.5 µL of H4 at a final concentration of 300 nM and an AcCOA (acetyl-CoA) reaction solution at a final concentration of 2 µM were added to the 384 reaction plates in step 3), and the plates were centrifuged at a rotation speed of 1000 rpm for 1 min and incubated at 25 °C for 90 min.
For KAT8: • 3) 2.5 µL of the KAT8 enzyme solution at a final concentration of 10 nM was added to the 384 reaction plates in step 2), and the plates were centrifuged at 1000 rpm for 1 min and incubated at 25 °C for 10 min. • 4) 2.5 µL of […] at a final concentration of 300 nM and an AcCOA (acetyl-CoA) reaction solution at a final concentration of 2 µM were added to the 384 reaction plates in step 3), and the plates were centrifuged at a rotation speed of 1000 rpm for 1 min and incubated at 25 °C for 90 min. • 5) 5 µL of Eu-Ab& Ulight-SA detection solution was separately added to the 384 reaction plates in step 4) of the 4 groups described above, and the plates were centrifuged at 1000 rpm for 1 min and incubated at 25 °C for 60 min. • 6) The HTRF […] signals were read using a BMG high-throughput drug-screening multi-mode microplate reader.
The acetylation levels of the histones in the groups were analyzed by the GraphPad Prism 8 software. The reading of the negative control (0.5% DMSO wells) was set as 0% inhibition rate, and the reading of the positive control (wells with the highest concentration of the control compound) was set as 100% inhibition rate. The inhibition rates were calculated, and then IC50 values (half maximal inhibitory concentration) of test compounds were obtained by using a software nonlinear fitting formula; [formula]
Datapositive control: mean of positive control well values; Datanegative control: mean of negative control well values. Table 5. Enzymatic inhibitory activity of example compounds

T2 sequence (P33261 whole entry): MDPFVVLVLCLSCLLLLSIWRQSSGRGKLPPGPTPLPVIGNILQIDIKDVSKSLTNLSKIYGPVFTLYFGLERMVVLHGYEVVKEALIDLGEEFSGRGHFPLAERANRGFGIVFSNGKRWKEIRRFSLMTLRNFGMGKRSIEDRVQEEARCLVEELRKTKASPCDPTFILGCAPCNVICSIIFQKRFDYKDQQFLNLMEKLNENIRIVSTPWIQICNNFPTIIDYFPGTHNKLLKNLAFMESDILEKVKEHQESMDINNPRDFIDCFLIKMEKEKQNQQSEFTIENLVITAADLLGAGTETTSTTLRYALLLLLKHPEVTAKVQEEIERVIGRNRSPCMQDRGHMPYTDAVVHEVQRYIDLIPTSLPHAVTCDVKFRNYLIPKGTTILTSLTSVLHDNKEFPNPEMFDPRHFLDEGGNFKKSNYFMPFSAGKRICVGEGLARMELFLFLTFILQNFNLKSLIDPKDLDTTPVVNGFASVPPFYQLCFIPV
T3 sequence (O95251 whole entry): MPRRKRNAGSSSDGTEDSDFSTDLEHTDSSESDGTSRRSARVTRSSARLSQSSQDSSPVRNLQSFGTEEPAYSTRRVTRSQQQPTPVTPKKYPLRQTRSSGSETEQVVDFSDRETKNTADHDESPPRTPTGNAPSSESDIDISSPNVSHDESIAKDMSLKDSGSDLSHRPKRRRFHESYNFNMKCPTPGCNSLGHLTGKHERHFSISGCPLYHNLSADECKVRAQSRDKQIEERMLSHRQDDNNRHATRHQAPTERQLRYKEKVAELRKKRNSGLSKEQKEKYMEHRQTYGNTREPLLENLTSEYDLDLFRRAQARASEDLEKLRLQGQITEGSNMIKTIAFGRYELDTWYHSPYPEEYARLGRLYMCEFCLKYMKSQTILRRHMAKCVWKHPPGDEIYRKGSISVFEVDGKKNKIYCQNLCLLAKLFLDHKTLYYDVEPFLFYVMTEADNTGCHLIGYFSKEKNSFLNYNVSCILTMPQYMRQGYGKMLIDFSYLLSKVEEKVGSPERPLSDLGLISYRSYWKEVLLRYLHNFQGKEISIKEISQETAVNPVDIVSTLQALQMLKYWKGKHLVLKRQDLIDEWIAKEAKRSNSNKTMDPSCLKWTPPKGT
T1 sequence (P10635 whole entry): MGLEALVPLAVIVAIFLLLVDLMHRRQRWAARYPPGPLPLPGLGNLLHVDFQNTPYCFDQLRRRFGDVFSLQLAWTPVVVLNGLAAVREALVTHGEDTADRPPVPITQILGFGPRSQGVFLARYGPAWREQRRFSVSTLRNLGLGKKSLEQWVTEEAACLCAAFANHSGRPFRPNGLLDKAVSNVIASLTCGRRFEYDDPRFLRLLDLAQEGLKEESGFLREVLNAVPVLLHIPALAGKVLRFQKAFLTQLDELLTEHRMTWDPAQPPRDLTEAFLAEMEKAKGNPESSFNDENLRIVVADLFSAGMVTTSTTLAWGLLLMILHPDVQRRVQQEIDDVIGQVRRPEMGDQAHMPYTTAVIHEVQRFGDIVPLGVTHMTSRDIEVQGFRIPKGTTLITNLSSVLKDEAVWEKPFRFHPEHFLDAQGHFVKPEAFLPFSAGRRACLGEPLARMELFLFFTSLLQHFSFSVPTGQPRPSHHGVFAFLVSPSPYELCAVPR

COc1cc2c(cc1S(=O)(=O)Nc1noc3cc(Cn4cccn4)nc(OC)c13)CCCC2 [Example 2, N-(6-((1H-Pyrazol-1-yl)methyl)-4-methoxyisoxazolo[4,5-c]pyridin-3-yl)-3-methoxy-5,6,7,8-tetrahydronaphthalene-2-sulfonamide]
inhibition at 20 min, 10 µM (CYP2D6): 5.38% | inhibition at 20 min, 10 µM (CYP2C19): 42.8% | IC50 (KAT7): 54 nM

COc1ccc2c(c1S(=O)(=O)Nc1noc3cc(Cn4cccn4)nc(OC)c13)OCC2 [Example 9, N-(6-((1H-Pyrazol-1-yl)methyl)-4-methoxyisoxazolo[4,5-c]pyridin-3-yl)-6-methoxy-2,3-dihydrobenzofuran-7-sulfonamide]
IC50 (KAT7): 47.5 nM

COc1ccc2ccoc2c1S(=O)(=O)Nc1noc2cc(Cn3cccn3)nc(OC)c12 [Example 10, N-(6-((1H-Pyrazol-1-yl)methyl)-4-methoxyisoxazolo[4,5-c]pyridin-3-yl)-6-methoxybenzofuran-7-sulfonamide]
inhibition at 20 min, 10 µM (CYP2D6): 6.03% | inhibition at 20 min, 10 µM (CYP2C19): 9.54% | IC50 (KAT7): 7.42 nM

COc1cc2c(cc1S(=O)(=O)Nc1noc3cc(Cn4cccn4)nc(OC)c13)OCC2 [Example 59, N-(6-((1H-Pyrazol-1-yl)methyl)-4-methoxyisoxazolo[4,5-c]pyridin-3-yl)-5-methoxy-2,3-dihydrobenzofuran-6-sulfonamide]
inhibition at 20 min, 10 µM (CYP2D6): 4.62% | inhibition at 20 min, 10 µM (CYP2C19): 7.62% | IC50 (KAT7): 27.4 nM

COc1cc2c(cc1S(=O)(=O)Nc1noc3cc(Cn4cccn4)nc(OC)c13)CCCO2 [Example 76, N-(6-((1H-Pyrazol-1-yl)methyl)-4-methoxyisoxazolo[4,5-c]pyridin-3-yl)-7-methoxy-3,4-dihydro-1H-benzopyran-6-sulfonamide]
IC50 (KAT7): 86.6 nM
